These results are taken from patent US20060177888A1, “Method for evaluating antioxidation capability of organism sample” (Chugai Seiyaku Kabushiki Kaisha, priority 2003, published 2006).

The test system of test [1] is cholesterol esters contained in plasma samples. Briefly: Amounts of CEOOHs and CEOHs produced in AAPH-initiated oxidation of plasma samples with added antioxidant. The format is biochemical. Particulars: antioxidant added to human plasma at various concentrations five minutes before AAPH (10 mM), 37° C., 8 hours; endogenous α-tocopherol present; FIG. 4. Here is the method: Assay reproducibility was tested for oxidation products of cholesterol esters contained in plasma samples obtained from a normal human subject. In this test, the cholesterol esters were regarded as oxidizable substrates.
Blood was collected in heparin from one normal human subject who gave informed consent to prepare a plasma pool.
1.1 mL portions of this plasma sample were put into nine test tubes and were frozen-stored at −80° C.
Three test tubes A, B and C containing the frozen plasma were warmed to 37° C. for 5 minutes to thaw the frozen plasma. After thawing, the test tubes were kept in ice.
10 μL of an aqueous solution of AAPH (available from Wako Pure Chemical Industries, Ltd.; Lot No. DWF 1183) was added to 300 μL of plasma removed from each test tube at an AAPH concentration of 10 mM. Then, they were warmed to 37° C. to initiate an oxidation reaction.
After maintaining at 37° C. for 8 hours, the 3 vessels each containing the reaction solution were immersed in ice to stop the reaction. 1 mL of a methanol containing 0.02% acetic acid and 5 mL of hexane were added to 100 μL of each reaction solution to extract lipids. 4 mL of the hexane extract removed from each reaction solution was concentrated on Speed Vac (AES1010 available from Thermo Savant), and each concentrate was dissolved in 200 μL of isopropyl alcohol. […]

For test [2] the following is noted: reported in literature (Gotoh 1992; Noguchi 1997); cited from earlier work.

Consider `CCCCCC1(CCCCC)Cc2c(cc(C(C)(C)C)c(O)c2C(C)(C)C)O1` [BO-653, 4,6-di-t-butyl-5-hydroxy-2,2-di-n-pentyl-2,3-dihydrobenzofuran], for which the “amounts of CEOOHs and CEOHs produced with the increase of the concentration of the antioxidant” value in test [1] is listed as “significantly decrease”. In addition, the “rate of the reaction with linoleic acid peroxy radicals, expressed as ratio to the rate of the reaction of α-tocopherol” value in test [2] was 1/2.
As for `Cc1c(C)c2c(c(C)c1O)CC[C@@](C)(CCC[C@H](C)CCC[C@H](C)CCCC(C)C)O2` [α-tocopherol], the “amounts of CEOOHs and CEOHs produced with the increase of the concentration of the antioxidant” value in test [1] is on record as “significantly increase”.
